We go through one compound from PMC12598851, “Exploiting Avidity Effects for the Discovery of Low Affinity Protein-Binding Fragments” (Journal of Medicinal Chemistry, 2025).

Values joined by “and” are separate entries in the source; they are usually repeats but may differ in a detail not shown here. Identical values can stand only once. “Also recorded” adds a separate entry of the source.

The target in test [1] is T1, biotin-binding surface of SA (Streptomyces avidinii, UniProt P22629).
T1 construct: purchased ThermoFisher S3235
The experiment in a line: Competition assay with biotin on beads. Conditions: SA-647 500 nM pretreated with biotin 10 μM, 30 min. Here is the method:
To determine if ligand 2 interacts with the biotin-binding surface of SA, we preincubated SA-647 with excess biotin and repeated the binding assay.
This assay was conducted following the exact same procedure described above using two samples: SA-647 (500 nM) alone, and SA-647 (500 nM) that had been pretreated with biotin (10 μM) for 30 min at room temperature. Each sample was added to separate wells of a microtiter plate.

The target in test [2] is T2, tetrameric streptavidin (SA-647) (Streptomyces avidinii, UniProt P22629).
T2 construct: purchased ThermoFisher S3235
In words: Bead pull-down: SA-647 retained by compound-displaying TentaGel beads, plate reader. In kind it is binding. To be noted: SA-647 50 nM, about 14,000-fold below the intrinsic KD.

Test [3] deals with monomeric streptavidin (mSA-647). In words: Bead pull-down with monomeric streptavidin. To be noted: mSA-647 500 nM, 1 h, PBST, room temperature. In kind it is binding. How it is done:
To investigate this, compound 2-displaying, compound 3-displaying, or blank (acetylated) beads were incubated with tetrameric SA-647 or iFluor647-conjugated monomeric streptavidin (mSA-647). Biotin-displaying beads (Figure S3) were also included in this experiment as a high-affinity comparator. […] No binding of either protein to compound 3-displaying beads was observed.
3 Stable binding of tetrameric SA to beads displaying compound 2 is highly dependent on avidity. […] Each compound was represented by 1 million 10 μm TentaGel beads, with 250,000 beads used per technical replicate. (b) Effect of ligand functionalization density on compound binding. Beads were functionalized with compound 2, compound 3, or biotin at varying surface densities (100% to 5%) and incubated with SA-647 (500 nM) for 1 h in PBST at room temperature as previously, before recording the fluorescence intensity.
(§1) General notes: • At each step, contents were mixed by pipetting up and down 3–5 times. • All steps following the addition of SA-647 were conducted in the dark. • SA-647 and mSA-647 were purchased from commercial sources; (SA-647: ThermoFisher cat#S3235, mSA-647: Millipore SAE178).

The next test deals with T3, SA-647 (Streptomyces avidinii, UniProt P22629).
T3 construct: purchased ThermoFisher S3235
The experiment in a line: Dose-dependent binding of SA-647 to bead-displayed ligands by FACS (MFI). Conditions: SA-647 0.1 to 1000 nM. Here is the method:
We next asked if the bead binding assay could distinguish complexes with different affinities for SA. 10 μm TentaGel beads displaying compound 2, compound 3, the oxazole analogue of compound 2 (Figure S4), or the SA-binding macrocycle 1 shown in Figure a were exposed to different concentrations of SA-647 ranging from 0.1 to 1000 nM. After washing, the intensity of fluorescence retained on the beads was measured using a flow cytometer, and the results were plotted as the mean fluorescence intensity (MFI) on the beads vs the protein concentration. […] Macrocycle 1, which binds SA with a K D of about 600 nM in solution (more than 1000 times more tightly than compound 2), binds SA-647 on resin at far lower concentrations than does compound 2.
For orientation: Flow cytometry measures light scatter and fluorescence of single cells or particles in a stream.

The next test addresses T4, Streptavidin (SA) (Streptomyces avidinii, UniProt P22629).
T4 construct: purchased
In words: SPR, soluble compound binding to immobilized streptavidin. To be noted: soluble mini-PEG attached compound, immobilized SA; read-out: KD (SPR). How it is done:
The SPR binding affinity testing was conducted using the BIAcore 1K system (Cytiva) with BIAcore Insight Control Software. Streptavidin (50 μg/mL in 10 mM pH 5.0 NaOAc) was immobilized on a CM5 sensor chip (Cytiva) via amide coupling, using HBS-EP+ (10 mM HEPES, 150 mM NaCl, 3 mM EDTA, and 0.05% v/v Surfactant P20) as the immobilization buffer. Approximately 1000 RU of immobilization was achieved. Testing compounds were evaluated using the multiple-cycle kinetic/affinity method in PBS-P+ running buffer (20 mM phosphate buffer, 2.7 mM KCl, 137 mM NaCl, and 0.05% Surfactant P20), with a 200 s association time, 200 s dissociation time, and a flow rate of 45 μL/min. Binding affinities for the testing compounds were determined by fitting the sensor grams to both the 1:1 binding kinetics and steady-state affinity models provided in the BIAcore Insight Evaluation Software.
On the technique in general: Surface plasmon resonance follows binding to a sensor surface in real time, without labels.

For test [4], the target named is T2, tetrameric streptavidin (SA-647). In words: Bead pull-down: SA-647 retained by compound-displaying TentaGel beads, plate reader. It counts as binding.
From the text: Compounds 2 and 3 were then constructed on 10 μm TentaGel beads via straightforward solid-phase synthesis, along with acetylated beads, which as a “blank” (Figure c). TentaGel beads consist of an amino-polystyrene core onto which is grafted a thick layer of amine-terminated PEG chains. An additional mini-PEG spacer was incorporated prior to coupling the compounds to further improve spatial accessibility and aqueous display of the compounds (see Experimental Section for detailed synthesis). The beads were incubated with AlexaFluor 647-conjugated SA (SA-647) in phosphate-buffered saline supplemented with 0.05% Tween 20 (PBST) for 1 h at room temperature in the dark. Following incubation, the beads were washed thoroughly (see Experimental Section for a detailed protocol), then resuspended in PBST. The amount of fluorescent SA retained by the resin was analyzed using a Tecan multiwell plate reader equipped with appropriate excitation and emission filters (excitation at 650 nm, emission at 665 nm).
as §1
A 96-well Multiscreen hydrophilic assay plate (MilliporeSigma, MSBVN12) was activated by treating each well with 150 μL of 70% (v/v) ethanol in water. The solvent was removed under vacuum, and the wells were washed with PBST (3 × 150 μL). Fresh PBST (150 μL) was then added to each well.
The plate was drained and washed again with PBST (3 × 150 μL), followed by the addition of 150 μL PBST per well. Plates were shaken overnight at ambient temperature on an orbital plate shaker.
The next day, wells were drained and incubated with 150 μL of a 1:1 (v/v) solution of PBST:PBS blocking buffer (Thermo Scientific, 37538) for 1 h at room temperature. After removal of the blocking buffer, 100 μL PBST was added to each well and mixed thoroughly. A 20 μL aliquot from each well was transferred to a black 384-well flat-bottom plate (Corning, 3820) for background (blank) measurements.
The remaining PBST was removed, and the beads were incubated with SA-647 (500 nM in 1:1 PBST/blocking buffer, 150 μL per well) for 1 h at room temperature. After incubation, wells were washed with PBST while shaking (3 × 20 min). A final 150 μL PBST wash was performed and drained. Fresh PBST (80 μL) was added to each well, and the contents were transferred to labeled PCR tubes. Samples were briefly vortexed and mixed by pipetting.
Each sample was transferred to a black 384-well plate in triplicate (3 × 20 μL per well). The plate was sealed with a foil sticker and centrifuged at 250g for 1 min. Fluorescence intensity was measured using a TECAN plate reader. Background fluorescence (from blank wells) was subtracted prior to further data analysis.

Regarding `CC(=O)N(Cc1cccnc1)Cc1nc(C(=O)N(C)CC(=O)NCCOCCOCC(=O)NCC(N)=O)cs1` [Compound 2], the “retention of SA-647 preincubated with excess biotin” value in test [1] was “ablated retention”. Besides, the “binding of SA-647 to bead-displayed compound at low protein concentration” value in test [2] is listed as “above background binding was readily detectable”. The “binding of mSA-647 to bead-displayed ligand” value in test [3] is “did not retain detectable levels; also recorded: not observed”. Further, the “dose-dependent binding of SA-647 (MFI by flow cytometer)” value at SA-647 is on record as “dose-dependent binding”. Further, at Streptavidin (SA), the Kd was found to be 706 µM. In test [4] (SA-647 500 nM, 12 replicates, after background subtraction, Z' calculation), the “Fluorescence intensity, Average” value is given as 14647. The “binding of SA-647 to bead-displayed compound (fluorescence)” value in test [4] (SA-647 500 nM, 1 h, PBST, room temperature, after washing) is listed as “readily detectable; also recorded: strong binding”. Further, the “Fluorescence intensity, individual replicate” value in test [4] (SA-647 500 nM, replicates 1-12, after background subtraction, Z' calculation) was 15421 and 12975 and 13104 and 12492 and 14298 and 14769 and 15364 and 16337 and 17794 and 14546 and 14869 and 13797. The “fluorescence after 24 h in buffer lacking protein compared with directly after washing” value in test [4] (beads washed, resuspended in PBST lacking protein for 24 h) is “almost identical”. Further, the “retained SA-647 at 30% ligand density” value in test [4] (compound linked to only 30% of the sites on the beads, SA-647 500 nM) is listed as “almost undetectable above background”. In addition, the “dependence of SA-647 retention on ligand density” value in test [4] (site functionalization 100% to 5%, SA-647 500 nM) is recorded as “strongly density-dependent”.

One may read the Kd as the concentration at which binding is half-saturated.
